Experimental data: patent US6903085B1, “Substituted piperidine compounds useful as modulators of chemokine receptor activity” (AstraZeneca, AB, priority 1999, dated 2005)
Counter-ions that a name gives are not always drawn.

SMILES | melting point [°C]
O=C(CSc1ccc(C(F)(F)F)cn1)NC1CCN(Cc2ccc(Cl)c(Cl)c2)CC1 [Example 94, N-[1-(3,4-Dichlorobenzyl)-4-piperidinyl]-2-{[5-(trifluoromethyl)-2-pyridinyl]sulfanyl}acetamide] | 98
Clc1ccc(CN2CCC(Nc3nc4ccccc4[nH]3)CC2)cc1Cl [Example 103, N-[1-(3,4-Dichlorobenzyl)-4-piperidinyl]-1H-benzimidazol-2-amine] | 125
Cc1c(CC(=O)NC2CCN(Cc3ccc(Cl)c(Cl)c3)CC2)cnn1-c1ccccc1 [Example 95, N-[1-(3,4-Dichlorobenzyl)-4-piperidinyl]-2-(5-methyl-1-phenyl-1H-pyrazol-4-yl)acetamide] | 165
O=C(Cc1ccc(F)cc1)NC1CCN(Cc2ccc(Cl)c(Cl)c2)CC1 [Example 99, N-[1-(3,4-Dichlorobenzyl)-4-piperidinyl]-2-(4-fluorophenyl)acetamide] | 144 to 147
COc1cccc(NC(=O)CNC2CCN(Cc3ccc(Cl)c(Cl)c3)CC2)c1 (as salt: hydrochloride) [Example 104, 2-{[1-(3,4-Dichlorobenzyl)-4-piperidinyl]amino}-N-(3-methoxyphenyl)acetamide, dihydrochloride Salt] | 274 to 276
O=C(CSc1ncc(-c2ccccc2)cn1)NC1CCN(Cc2ccc(Cl)c(Cl)c2)CC1 [Example 101, N-[1-(3,4-Dichlorobenzyl)-4-piperidinyl]-2-[(5-phenyl-2-pyrimidinyl)sulfanyl]acetamide] | 157
O=C(CCCC(=O)c1ccccc1)NC1CCN(Cc2ccc(Cl)c(Cl)c2)CC1 [Example 96, N-[1-(3,4-Dichlorobenzyl)-4-piperidinyl]-5-oxo-5-phenylpentanamide] | 130
O=C(CSc1ccccc1)NC1CCN(Cc2ccc(Cl)c(Cl)c2)CC1 [Example 98] | 97 to 99
O=C(Cc1csc(-c2cnccn2)n1)NC1CCN(Cc2ccc(Cl)c(Cl)c2)CC1 [Example 100, N-[1-(3,4-Dichlorobenzyl)-4-piperidinyl]-2-[2-(2-pyrazinyl)-1,3-thiazol-4-yl]acetamide] | 186 to 189
O=C(CCc1nc(-c2ccccn2)no1)NC1CCN(Cc2ccc(Cl)c(Cl)c2)CC1 [Example 102, N-[1-(3,4-Dichlorobenzyl)-4-piperidinyl]-3-[3-(2-pyridinyl)-1,2,4-oxadiazol-5-yl]propanamide] | 155
Cc1sc(-c2ccc(Cl)cc2)nc1CC(=O)NC1CCN(Cc2ccc(Cl)c(Cl)c2)CC1 [Example 97, 2-[2-(4-Chlorophenyl)-5-methyl-1,3-thiazol-4-yl]-N-[1-(3,4-dichlorobenzyl)-4-piperidinyl]acetamide] | 170
O=C(Nc1ccc(Cl)c(Cl)c1)NC1CCN(Cc2ccc(Cl)c(Cl)c2)CC1 [Example 105, N-[1-(3,4-Dichlorobenzyl)-4-piperidinyl]-N′-(3,4-dichlorophenyl)urea] | 189 to 190

More lines, now with the values ahead:

melting point [°C] | SMILES
178 to 179 | COc1cccc(NC(=O)NC2CCN(Cc3ccc(Cl)c(Cl)c3)CC2)c1 [Example 106, N-[1-(3,4-Dichlorobenzyyl)-4-piperidinyl]-N′-(3-methoxyphenyl)urea]
132 | O=C(CCc1nc(-c2ccccn2)no1)NC1CCN(Cc2ccc(Cl)c(F)c2)CC1 [Example 363, N-[1-(4-Chloro-3-fluorobenzyl)-4-piperidinyl]-3-[3-(2-pyridinyl)-1,2,4-oxadiazol-5-yl]propanamide]
150 | O=C(CCc1nc(-c2ccccn2)no1)NC1CCN(Cc2ccc(F)c(Cl)c2)CC1 [Example 362, N-[1-(3-Chloro-4-fluorobenzyl)-4-piperidinyl]-3-[3-(2-pyridinyl)-1,2,4-oxadiazol-5-yl]propanamide]
145 | O=C(Cc1nc(-c2ccccn2)no1)NC1CCN(Cc2ccc(Cl)c(Cl)c2)CC1 [Example 359, N-[1-(3,4-Dichlorobenzyl)-4-piperidinyl]-2-[3-(2-pyridinyl)-1,2,4-oxadiazol-5-yl]acetamide]
> 250 | COc1ccc(CNC2CCN(Cc3ccc(Cl)c(Cl)c3)CC2)cc1 (as salt: hydrochloride) [Example 107, N-[1-(3,4-Dichlorobenzyl)-4-piperidinyl]-N-(4-methoxybenzyl)amine, dihydrochloride Salt]
